The values below come from patent publication US4069337A, “2-Substituted-indole-1-lower-alkanecarboxamides having anti-secretory or anti-ulcer activity” (Sterling Drug Inc., priority 1976, dated 1978).

Read-outs that look alike come from different tables or passages of the source.

Test [1] relates to secretion of gastric fluids. Nature of the test: anti-secretory activity in pylorus-ligated rats (method of Shay et al.). The format is in vivo, male albino Wistar rats. As to the method: In standard biological test procedures, described generally by Shay et al., Gastroenterology 5, 43 (1945) and 26, 906 (1954) and by Selmici et al., Acta Physiol. Acad. Sci. Hung. […] Anti-secretory activity was determined in male albino Wistar rats weighing approximately 180 g. using the method described by Shay et al. which is described as follows: the rats were divided into medicated groups of at least five rats each and control groups of ten rats. The rats were medicated orally once daily for 2 days prior to stomach ligation and once again immediately following ligation. All drugs were administered as the free base, and control rats received only the vehicle of medication. The rats were housed individually in wire cages, food was withdrawn 48 hours prior to surgery, and water was withdrawn at the time of surgery. Laparotomy was performed under light ether anesthesia, the pyloric-duodenal junction was ligated, and the wound was closed with metal clips and sprayed with a protective surgical dressing. Five hours following surgery, the rats were sacrificed, the stomach was removed, and the gastric juice collected. The gastric fluid was centrifuged, the total volume, color, and volume of solids were recorded. The pH of the gastric fluid was then determined on a Beckman pH meter, and the "free" and "total" hydrochloric acid content of each gastric sample was determined by titrating an aliquot of the gastric fluid (diluted to approximately 10 ml. with distilled water) by titrating with 0.1N sodium hydroxide against Toepfers reagent and phenolphthalein, respectively. By determining the milliequivalents of hydrochloric acid per milliliter of gastric juice and knowing the total volume of gastric juice secreted by each rat, the total acid output can be calculated. Since pH is a function of "free" acid, the activity of the test compounds can be evaluated by comparison of the mean "free" acid of medicated rats with the mean "free" acid of the controls, and the activity can thus be expressed in terms of percent inhibition of free acid.
(§1) Data obtained on administration of the compounds of formula I in rats in the anti-secretory and anti-ulcer tests described above are given in the table below. Unless noted otherwise, data were obtained on oral administration. Results in the anti-secretory activity tests are given in terms of the pH of the gastric fluid in the test animals and the percent inhibition of free acid, while results in the anti-ulcer test are given either in terms of the percent inhibition of ulcers or as a ratio representing the number of animals with ulcers (as the numerator) to the total number of animals in the test group (as the denominator). All doses are expressed in mg./kg.

For test [2], the system named is reserpine-induced stomach ulceration. The test is described as follows: anti-ulcer activity, reserpine-induced ulcer test (method of Selmici et al.). Format: in vivo, male, albino, Sprague-Dawley rats. Conditions: for Anti-Ulcer: ratio of number of animals with ulcers to total number of animals in the test group: s.c., 50 mg./kg.; for inhibition in vivo at 50 mg/kg: Rattus norvegicus, sc, 18 h.

For test [3] the test system is unchanged. Described as above. Format: in vivo, male, albino, Sprague-Dawley rats. How it is done: The anti-ulcer activity of the compounds was determined using the reserpine-induced anti-ulcer test method, described by Selmici et al., which is described briefly as follows: male, albino, Sprague-Dawley rats, weighing approximately 300 g., were divided into medicated and control groups of at least five rats each, and one positive control group of five rats medicated with a known drug at the active dose was run with each experiment. The rats were medicated forty-eight, twenty-four, and one hour before receiving an injection of reserpine. All test drugs were administered orally in terms of base, and the control rats received only the vehicle of medication. The rats were housed individually in wire cages, and food was withdrawn 24 hours prior to injection of reserpine, while water was allowed ad libitum. One hour following the third medication, 5.0 mg. of reserpine per kilogram of body weight in a concentration of 5 mg./ml. was injected intramuscularly in each rat. Eighteen hours after injection the rats were sacrificed, their stomachs removed, opened along the greater curvature, rinsed in warm saline, and pinned to a cork board for gross observation. The stomachs were examined for the number and size of ulcerations located in the glandular portion of the stomach with the aid of a one millimeter grid ocular with a 10x dissecting microscope. The degree of ulceration was arbitrarily graded according to the number and size of the ulcers as follows:
The points were added together and divided by the number of rats in each group to give an ulcer score, and the difference in the mean scores of the medicated and control group was expressed as percent inhibition of ulceration. Alternatively, the results can be expressed as a ratio of the total number of rats with any degree of ulceration (as the numerator) to the total number of rats in the test group (as the denominator).
as §1

Setting [4] is: Rattus norvegicus, intraduodenal, 5 h, i.d., 100 mg./kg., read-out: % Inhibition of Free Acid.
The mark [5] stands for this setting: Rattus norvegicus, ip, 5 h, i.p., 100 mg./kg., read-out: % Inhibition of Free Acid.
Where [6] appears, read: Rattus norvegicus, po, 5 h, oral, 100 mg./kg., read-out: % Inhibition of Free Acid.
Setting [7] is: Rattus norvegicus, sc, 5 h, s.c., 100 mg./kg., read-out: % Inhibition of Free Acid.
Setting [8] is: Rattus norvegicus, 18 h, oral, 100 mg./kg.
Setting [9] is: Rattus norvegicus, 5 h, oral, 100 mg./kg., read-out: % Inhibition of Free Acid.

Consider `Cc1c(CO)c2ccccc2n1CC(N)=O` [Example 8C, 2-Methyl-3-hydroxymethyl-1-indoleacetamide], for which the inhibition in vivo at 100 mg/kg came out at 30% in test [1] (setting [4]), 61% in test [1] (setting [5]), 62% in test [1] (setting [6]) and 100% in test [1] (setting [7]). The “pH of the gastric fluid” value in test [1] (i.d., 100 mg./kg.) turned out to be 1.1; in test [1] (i.p., 100 mg./kg.), 2.0; in test [1] (oral, 100 mg./kg.), 1.5; in test [1] (s.c., 100 mg./kg.) it was 6.9. In addition, in test [2], the “Anti-Ulcer: ratio of number of animals with ulcers to total number of animals in the test group” value (from here on “Anti-Ulcer: ratio of number of animals”) is 0/5.
Regarding `CNC(=O)Cn1c(C)c(C)c2ccccc21` [Example 1B, 2,3-Dimethyl-1-indole-N-methylacetamide], in test [1] (Rattus norvegicus, intraduodenal, 5 h, i.d., 6.25 mg./kg., read-out: % Inhibition of Free Acid), the inhibition in vivo at 6.25 mg/kg came out at 46%. Moreover, the inhibition in vivo at 100 mg/kg in test [1] (setting [6]) stood at 45%; in test [3] (setting [8]) it was 91%. Moreover, the “pH of the gastric fluid” value amounted to 1.4 in test [1] (i.d., 6.25 mg./kg.) and 1.8 in test [1] (oral, 100 mg./kg.). In test [2], the inhibition in vivo at 50 mg/kg was found to be 93%.
For `Cc1c(C)n(CCC(N)=O)c2ccccc12` [Example 4A, β-(2,3-dimethyl-1-indole)propionamide], the inhibition in vivo at 100 mg/kg in test [1] (setting [6]) is 100%. Besides, in test [1] (oral, 100 mg./kg.), the “pH of the gastric fluid” value is listed as 5.3. For the same molecule, the inhibition in vivo at 1.56 mg/kg in test [3] (Rattus norvegicus, 18 h, oral, 1.56 mg./kg.) was 43%. In addition, the inhibition in vivo at 6.25 mg/kg in test [3] (Rattus norvegicus, 18 h, oral, 6.25 mg./kg.) is 48%. Moreover, in test [3] (Rattus norvegicus, 18 h, oral), the inhibition in vivo at 25 mg/kg turned out to be 93%. This molecule showed an inhibition in vivo at 50 mg/kg in test [2] of 89%.
`Cc1c(C)n(CC(=O)NCCO)c2ccccc12` [Example 3A, 2,3-dimethyl-1-indole-N-(2-hydroxyethyl)acetamide]: the results for the inhibition in vivo at 100 mg/kg in test [1] (setting [6]) and in test [3] (setting [8]) were 22% and 84%, respectively. In test [1] (oral, 100 mg./kg.), the “pH of the gastric fluid” value is 1.4. For the same molecule, the inhibition in vivo at 50 mg/kg in test [2] is 69%.
Turning to `Cc1c(C=O)c2ccccc2n1CC(N)=O` [Example 6, 2-methyl-3-formyl-1-indoleacetamide], the inhibition in vivo at 100 mg/kg in test [1] (setting [9]) and in test [3] (setting [8]) was 0% throughout. Further, the “pH of the gastric fluid” value in test [1] (oral, 100 mg./kg.) was determined as 1.1.
Take `Cc1c(CO)c2cc(F)ccc2n1CCC(N)=O` [Example 8E, β-(2-Methyl-3-hydroxymethyl-5-fluoro-1-indole)propionamide]: the inhibition in vivo at 100 mg/kg in test [1] (setting [4]) amounted to 89%; in test [1] (setting [5]) it was 100%; in test [1] (setting [6]), 22%; in test [1] (setting [7]), 100%. The “pH of the gastric fluid” value in test [1] (i.d., 100 mg./kg.) worked out at 3.5; in test [1] (i.p., 100 mg./kg.) it was 5.9; in test [1] (oral, 100 mg./kg.) it was 1.1; in test [1] (s.c., 100 mg./kg.), 6.1. Also, the “Anti-Ulcer: ratio of number of animals” value in test [2] is 1/3.
As for `NC(=O)CCn1c(-c2ccccc2)c(C=O)c2ccccc21` [Example 4N, β-(2-Phenyl-3-formyl-1-indole)propionamide], the inhibition in vivo at 100 mg/kg in test [1] (setting [9]) and in test [1] (setting [7]) was 0% in each case. Moreover, the “pH of the gastric fluid” value in test [1] (oral, 100 mg./kg.) is 1.0; in test [1] (s.c., 100 mg./kg.), 1.0. For the same molecule, the “Anti-Ulcer: ratio of number of animals” value in test [3] (oral, 100 mg./kg.) was 5/5.
On to `Cc1c(C)n(CC(N)=S)c2ccccc12` [Example 7A, 2,3-dimethyl-1-indolethioacetamide], for which, in test [1] (setting [6]), the inhibition in vivo at 100 mg/kg came to 58%. The “pH of the gastric fluid” value in test [1] (oral, 100 mg./kg.) came out at 2.3. The same molecule had an inhibition in vivo at 25 mg/kg in test [3] (Rattus norvegicus, 18 h, oral) of 75%.
Consider `Cc1cn(CC(N)=O)c2ccccc12` [Reference, 3-methyl-1-indole-acetamide, reference compound], for which the results for the inhibition in vivo at 100 mg/kg in test [1] (setting [6]) and in test [3] (setting [8]) were 62% and 75%, respectively. In test [1] (oral, 100 mg./kg.), the “pH of the gastric fluid” value is recorded as 2.3. The “anti-secretory activity (in words)” value in test [1] (rat, in vivo) is “has anti-secretory and anti-ulcer activities”. The “anti-ulcer activity (in words)” value in test [3] (rat, in vivo) is “has anti-secretory and anti-ulcer activities”.
